Measurements reported in patent US6534524B1, “Indazole compounds and pharmaceutical compositions for inhibiting protein kinases, and methods for their use” (Agouron Pharmaceuticals, Inc., priority 1999, dated 2003).

Test system: human umbilical vein endothelial cells (HUVEC)
Experiment: HUVEC proliferation assay (VEGF-stimulated, MTT);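 note: relative to VEGF-stimulated control minus starvation-medium baseline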
Format: cell-based
Conditions: crude reaction mixtures
Description: HUVEC Proliferation Assay
This assay determines the ability of a test compound to inhibit the growth factor-stimulated proliferation of human umbilical vein endothelial cells (“HUVEC”). HUVEC cells (passage 3-4, Clonetics, Corp.) were thawed into EGM2 culture medium (Clonetics Corp) in T75 flasks. Fresh EGM2 medium was added to the flasks 24 hours later. Four or five days later, cells were exposed to another culture medium (F12K medium supplemented with 10% fetal bovine serum (FBS), 60 μg/mL endothelial cell growth supplement (ECGS), and 0.1 mg/mL heparin). Exponentially-growing HUVEC cells were used in experiments thereafter. Ten to twelve thousand HUVEC cells were plated in 96-well dishes in 100 μl of rich, culture medium (described above). The cells were allowed to attach for 24 hours in this medium. The medium was then removed by aspiration and 105 μl of starvation media (F12K+1% FBS) was added to each well. After 24 hours, 15 μl of test agent dissolved in 1% DMSO in starvation medium or this vehicle alone was added into each treatment well; the final DMSO concentration was 0.1%. One hour later, 30 μl of VEGF (30 ng/mL) in starvation media was added to all wells except those containing untreated controls; the final VEGF concentration was 6 ng/mL. Cellular proliferation was quantified 72 hours later by MTT dye reduction, at which time cells were exposed for 4 hours MTT (Promega Corp.).
For screening compound library plates, one or two concentrations (one well per concentration) were employed, and the % inhibition was calculated by the following formula:
% inhibition=(control−test)÷(control−starvation)
% inhibition=(control-treated)/(control-starvation)×100

[1] = Library I, Y = CO, nominal concentration of 10 nM
[2] = Library I, Y = NH, nominal concentration of 10 nM
[3] = Library I, Y = O, nominal concentration of 10 nM
[4] = Library II, Y=S, 0.5 mM (column head; text: nominal 0.5 nM)
[5] = Library II, Y=S, 2 mM (column head; text: nominal 2 nM)

Structure (SMILES) | % inhibition of the proliferation of HUVEC [1] [%] | % inhibition of the proliferation of HUVEC [2] [%] | % inhibition of the proliferation of HUVEC [3] [%] | % inhibition of the proliferation of HUVEC [4] [%] | % inhibition of the proliferation of HUVEC [5] [%]
O=C(Nc1cccnc1)c1ccc2c(-c3nc4ccccc4[nH]3)n[nH]c2c1 | −2 | 17 | 25 | – | –
O=C(Nc1ccccc1)c1ccc2c(-c3nc4ccccc4[nH]3)n[nH]c2c1 | 3 | 16 | 24 | – | –
O=C(NCCCO)c1ccc2c(-c3nc4ccccc4[nH]3)n[nH]c2c1 | 5 | 16 | 25 | – | –
O=C(NCCN1CCOCC1)c1ccc2c(-c3nc4ccccc4[nH]3)n[nH]c2c1 | −1 | 15 | 30 | – | –
O=C(Nc1ccncc1)c1ccc2c(-c3nc4ccccc4[nH]3)n[nH]c2c1 | 33 | 13 | 42 | – | –
NC(=O)C1CCCN(C(=O)c2ccc3c(-c4nc5ccccc5[nH]4)n[nH]c3c2)C1 (stereo not drawn) | 3 | 13 | 36 | – | –
CC(=O)NCCNC(=O)c1ccc2c(-c3nc4ccccc4[nH]3)n[nH]c2c1 | 14 | 12 | 90 | – | –
COc1ccc(NC(=O)c2ccc3c(-c4nc5ccccc5[nH]4)n[nH]c3c2)cn1 | 81 | 11 | 64 | – | –
CC(=O)N1CCN(C(=O)c2ccc3c(-c4nc5ccccc5[nH]4)n[nH]c3c2)CC1 | 5 | 7 | 23 | – | –
CC1CN(C(=O)c2ccc3c(-c4nc5ccccc5[nH]4)n[nH]c3c2)CC(C)O1 (stereo not drawn) | 21 | 7 | 40 | – | –
O=C(c1ccc2c(-c3nc4ccccc4[nH]3)n[nH]c2c1)N1CCCC(CO)C1 (stereo not drawn) | 96 | 6 | 134 | – | –
O=C(c1ccc2c(-c3nc4ccccc4[nH]3)n[nH]c2c1)N1CCN(C(=O)c2ccco2)CC1 | −20 | 6 | 25 | – | –
NC(=O)C1CCN(C(=O)c2ccc3c(-c4nc5ccccc5[nH]4)n[nH]c3c2)CC1 | 44 | 5 | 82 | – | –
O=C(Nc1ccc2cn[nH]c2c1)c1ccc2c(-c3nc4ccccc4[nH]3)n[nH]c2c1 | 0 | 2 | 4 | – | –
O=C(c1ccc2c(-c3nc4ccccc4[nH]3)n[nH]c2c1)N1CCCC1 | 8 | 0 | 23 | – | –
O=C(Nc1ccc2[nH]ncc2c1)c1ccc2c(-c3nc4ccccc4[nH]3)n[nH]c2c1 | 28 | −1 | 80 | – | –
O=C(c1ccc2c(-c3nc4ccccc4[nH]3)n[nH]c2c1)N1CCC(O)C1 (stereo not drawn) | 10 | −2 | 19 | – | –
CC1C(=O)NCCN1C(=O)c1ccc2c(-c3nc4ccccc4[nH]3)n[nH]c2c1 (stereo not drawn) | 12 | −3 | 40 | – | –
O=C(NC1CCCCC1)c1ccc2c(-c3nc4ccccc4[nH]3)n[nH]c2c1 | 3 | −3 | 46 | – | –
C=CCN1CCN(C(=O)c2ccc3c(-c4nc5ccccc5[nH]4)n[nH]c3c2)CC1 | 39 | −4 | – | – | –
O=C(c1ccc2c(-c3nc4ccccc4[nH]3)n[nH]c2c1)N1CCCC(O)C1 (stereo not drawn) | 37 | −5 | 20 | – | –
O=C(c1ccc2c(-c3nc4ccccc4[nH]3)n[nH]c2c1)N1CCOCC1 | 10 | −7 | 59 | – | –
CN(CCO)C(=O)c1ccc2c(-c3nc4ccccc4[nH]3)n[nH]c2c1 | 27 | −8 | 48 | – | –
CCOC(=O)C1CCCN(C(=O)c2ccc3c(-c4nc5ccccc5[nH]4)n[nH]c3c2)C1 (stereo not drawn) | 64 | −8 | 83 | – | –

Structure (SMILES) | % inhibition of the proliferation of HUVEC [1] [%] | % inhibition of the proliferation of HUVEC [2] [%] | % inhibition of the proliferation of HUVEC [3] [%] | % inhibition of the proliferation of HUVEC [4] [%] | % inhibition of the proliferation of HUVEC [5] [%]
CN(C)C(=O)c1ccc2c(-c3nc4ccccc4[nH]3)n[nH]c2c1 | 35 | −9 | 42 | – | –
CCOC(=O)CC(C)NC(=O)c1ccc2c(-c3nc4ccccc4[nH]3)n[nH]c2c1 (stereo not drawn) | 31 | −17 | 20 | – | –
CN(CC#N)C(=O)c1ccc2c(-c3nc4ccccc4[nH]3)n[nH]c2c1 | 56 | −17 | 17 | – | –
CC1(C)CC(NC(=O)c2ccccc2Sc2ccc3c(/C=C/c4ccccn4)n[nH]c3c2)CC(C)(C)N1 | – | – | – | 35 | 10
Nc1ccc(CCNC(=O)c2ccccc2Sc2ccc3c(/C=C/c4ccccn4)n[nH]c3c2)cc1 | – | – | – | 32 | 31
O=C(NCCN1CCNC1=O)c1ccccc1Sc1ccc2c(/C=C/c3ccccn3)n[nH]c2c1 | – | – | – | 5 | 1
NC(=O)CCNC(=O)c1ccccc1Sc1ccc2c(/C=C/c3ccccn3)n[nH]c2c1 | – | – | – | 8 | 18
CCC(CC)CCCC(C)NC(=O)c1ccccc1Sc1ccc2c(/C=C/c3ccccn3)n[nH]c2c1 (stereo not drawn) | – | – | – | 3 | 15
CN(C)CCCCNC(=O)c1ccccc1Sc1ccc2c(/C=C/c3ccccn3)n[nH]c2c1 | – | – | – | 23 | 16
CN(C)CCCCCCNC(=O)c1ccccc1Sc1ccc2c(/C=C/c3ccccn3)n[nH]c2c1 | – | – | – | 42 | 22
CC(CNC(=O)c1ccccc1Sc1ccc2c(/C=C/c3ccccn3)n[nH]c2c1)N(C)C (stereo not drawn) | – | – | – | −9 | 1
O=C(NCCCN1CCCCCC1)c1ccccc1Sc1ccc2c(/C=C/c3ccccn3)n[nH]c2c1 | – | – | – | 25 | −5
O=C(NCCCN1CCCCC1)c1ccccc1Sc1ccc2c(/C=C/c3ccccn3)n[nH]c2c1 | – | – | – | 16 | 7
O=C(NC1CCS(=O)(=O)C1)c1ccccc1Sc1ccc2c(/C=C/c3ccccn3)n[nH]c2c1 (stereo not drawn) | – | – | – | 27 | 2
O=C(O)CNC(=O)CCNC(=O)c1ccccc1Sc1ccc2c(/C=C/c3ccccn3)n[nH]c2c1 | – | – | – | 49 | −9
N#CCNC(=O)c1ccccc1Sc1ccc2c(/C=C/c3ccccn3)n[nH]c2c1 | – | – | – | 18 | 40
O=C(CNC(=O)c1ccccc1Sc1ccc2c(/C=C/c3ccccn3)n[nH]c2c1)NO | – | – | – | 5 | 9
O=C(O)CNC(=O)c1ccccc1Sc1ccc2c(/C=C/c3ccccn3)n[nH]c2c1 | – | – | – | 8 | 23
O=C(NCCS(=O)(=O)O)c1ccccc1Sc1ccc2c(/C=C/c3ccccn3)n[nH]c2c1 | – | – | – | 16 | 21
CCC(O)CNC(=O)c1ccccc1Sc1ccc2c(/C=C/c3ccccn3)n[nH]c2c1 (stereo not drawn) | – | – | – | 13 | 23
CC(C)(CO)CNC(=O)c1ccccc1Sc1ccc2c(/C=C/c3ccccn3)n[nH]c2c1 | – | – | – | 8 | 22
CCN1CC(NC(=O)c2ccccc2Sc2ccc3c(/C=C/c4ccccn4)n[nH]c3c2)CN1CC | – | – | – | 2 | −19
CCN(CCNC(=O)c1ccccc1Sc1ccc2c(/C=C/c3ccccn3)n[nH]c2c1)c1cccc(C)c1 | – | – | – | 17 | 1
